{"source": "patent US20170340690A1", "about": "“METHOD FOR IMPROVING INTESTINAL HEALTH USING EXTRACTS OF CODONOPSIS LANCEOLATA” (KOREA INSTITUTE OF SCIENCE AND TECHNOLOGY, priority 2016, published 2017)", "key": {"[1]": {"system": "intestinal microorganisms", "test": "Gas chromatographic analysis of content of short-chain fatty acids in culture medium of intestinal microorganisms", "assay_type": "cell-based, human", "conditions": "48 hours, extract 100 μg/mL, FOS 1 mg/mL, chloramphenicol 10 or 40 μg/mL; for Content (mM) of short-chain fatty acids: non-treated control 18.6 mM", "description": "The analysis sample was subjected to centrifugation of the 96-well plate at 3500 rpm for 10 minutes. 400 μL of the obtained supernatant was stabilized by adding 20 μL of 50% sulfuric acid and then 40 μL of an internal standard (1% 2-methylpentanoic acid) was added. Then, after adding 400 μL of ethyl ether, the mixture was mixed for about 2 minutes by vortexing. The sample was centrifuged and the top ethyl ether layer was recovered and subjected to GC analysis. The analysis was performed using Bruker 450-GC and the Supelco's Nukol Fused silica capillary column ([…]×0.25 mm×0.25 μm). The analysis condition is described in Table 4."}, "tryptophanase": {"system": "tryptophanase", "conditions": "enzymatic activity divided by OD600; 37° C., 48 hours anaerobic culture; extract 100 μg/mL, FOS 1 mg/mL, chloramphenicol 10 or 40 μg/mL (FIG. 4)", "procedure": "In order to quickly evaluate the effect of the candidate materials on improvement of intestinal microflora, culturing was performed using a 96-well plate. 10 μL of the culture medium of intestinal microorganisms maintained stably through anaerobic continuous culturing was inoculated to 1 mL of a medium for investigation described in Table 3. Culturing was performed at 37° C. for 48 hours by treating an extract of Codonopsis lanceolata for evaluating the effect of improving intestinal microflora at a concentration of 100 μg/mL (0.2% DMSO). […] At the same time, chloramphenicol (10 or 40 μg/mL) which is an antibiotic known to worsen intestinal microflora was used to compare the effect of improving intestinal microflora. Then, the effect of improving intestinal microflora was investigated by measuring the growth of intestinal microorganisms, the enzymatic activity of harmful bacteria, the content of short-chain fatty acids, etc. using the culture medium of microorganisms.\nThe culture medium of intestinal microorganisms incubated and maintained with a culture medium in a fermenter under an anaerobic condition. […] The supernatant was taken and absorbance was measured at 550 nm. Then, relative tryptophanase activity (%) was calculated by dividing the enzymatic activity by the degree of growth of intestinal microorganisms (OD600)."}, "[2]": {"system": "intestinal microorganisms", "test": "Measurement of growth of intestinal microorganisms (absorbance at 600 nm)", "assay_type": "cell-based, human", "conditions": "normal medium condition (FIG. 1), 37° C., 48 hours, extract 100 μg/mL, FOS 1 mg/mL, chloramphenicol 10 or 40 μg/mL"}, "β-glucuronidase": {"system": "β-glucuronidase", "conditions": "enzymatic activity divided by OD600; 37° C., 48 hours anaerobic culture; extract 100 μg/mL, FOS 1 mg/mL, chloramphenicol 10 or 40 μg/mL (FIG. 3)", "procedure": "The samples were transfered to an anaerobic workstation within 30 minutes and treated quickly. After adding glycerol as an additive for storage at low temperature, the mixtures were stored in an ultra-low temperature freezer with 40 mL each and were used as samples for culturing of intestinal microorganisms.\nEach bioreactor containing 300 mL of a medium was sterilized and maintained at an anaerobic condition by injecting nitrogen gas. Then, the sample of intestinal microorganisms prepared in Test Example 1 was inoculated. After conducting batch culturing for 24 hours, continuous culturing was performed using a medium of the same composition. Total residence time was 24 hours. Culturing temperature was maintained at 37° C. and pH was maintained at 5.5 using a 1 N hydrochloric acid solution and a 1 N sodium hydroxide solution. […] The culturing condition was maintained for at least 30 days. […]\nThe culture medium of intestinal microorganisms incubated and maintained with a culture medium in a fermenter under an anaerobic condition. […] The supernatant was taken and absorbance was measured at 405 nm. Then, relative β-glucuronidase activity (%) was calculated by dividing the enzymatic activity by the degree of growth of intestinal microorganisms (OD600)."}}, "data": [{"smiles": "O=C(N[C@H](CO)[C@H](O)c1ccc([N+](=O)[O-])cc1)C(Cl)Cl", "note": "[chloramphenicol]", "values": [{"measurement": "Composition of short-chain fatty acids (%) Acetate", "setting": "[1]", "result": "54.36 ± 3.23", "unit": "%"}, {"measurement": "Composition of short-chain fatty acids (%) Butyrate", "setting": "[1]", "result": "20.24 ± 0.64", "unit": "%"}, {"measurement": "Composition of short-chain fatty acids (%) Propionate", "setting": "[1]", "result": "25.40 ± 0.89", "unit": "%"}, {"measurement": "Content (mM) of short-chain fatty acids", "setting": "[1]", "result": 2.03, "unit": "mM"}, {"measurement": "Content (mM) of short-chain fatty acids", "setting": "[1]; listed as Antibiotic (chloramphenicol)", "result": "2.03 ± 0.06", "unit": "mM"}, {"measurement": "relative tryptophanase activity", "setting": "tryptophanase", "result": "increased tryptophanase activity"}, {"measurement": "growth of intestinal microorganisms", "setting": "[2]", "result": "decreased growth of intestinal microorganisms"}, {"measurement": "relative β-glucuronidase activity", "setting": "β-glucuronidase", "result": "increased β-glucuronidase activity"}]}]}
